{"source": "patent US4939133A", "about": "“N-substituted-2-hydroxy-α-oxo-benzeneacetamides and pharmaceutical compositions having activity as modulators of the arachidonic acid cascade” (Warner-Lambert Company, priority 1985, dated 1990)", "molecular_target": "T1, 5-lipoxygenase (isolated human leukocytes) (Homo sapiens, UniProt P09917)", "T1 construct": "5-Lipoxygenase Assay Using Isolated Human Leukocytes (5LOA2); endogenous in cells; host or cells: isolated human blood leukocytes, platelets removed", "T1 sequence (P09917 1-674)": "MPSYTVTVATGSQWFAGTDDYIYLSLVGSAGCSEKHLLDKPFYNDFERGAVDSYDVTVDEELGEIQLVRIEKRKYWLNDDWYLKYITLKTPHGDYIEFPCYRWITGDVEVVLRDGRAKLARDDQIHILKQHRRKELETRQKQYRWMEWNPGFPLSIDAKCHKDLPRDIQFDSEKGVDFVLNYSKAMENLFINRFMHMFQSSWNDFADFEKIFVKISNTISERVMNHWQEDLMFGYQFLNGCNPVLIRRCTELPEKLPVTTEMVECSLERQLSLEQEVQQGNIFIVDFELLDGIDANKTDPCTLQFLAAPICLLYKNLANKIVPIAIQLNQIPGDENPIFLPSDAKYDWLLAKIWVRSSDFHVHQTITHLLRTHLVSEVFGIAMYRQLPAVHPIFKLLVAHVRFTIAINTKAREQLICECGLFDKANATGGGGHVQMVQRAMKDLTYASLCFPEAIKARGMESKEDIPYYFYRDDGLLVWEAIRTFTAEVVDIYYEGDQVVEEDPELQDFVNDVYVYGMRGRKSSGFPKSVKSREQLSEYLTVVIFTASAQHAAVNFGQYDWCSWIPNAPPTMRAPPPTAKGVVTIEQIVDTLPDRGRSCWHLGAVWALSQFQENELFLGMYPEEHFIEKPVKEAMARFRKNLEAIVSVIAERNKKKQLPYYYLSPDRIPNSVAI", "assay": "5-Lipoxygenase Assay Using Isolated Human Leukocytes (5LOA2)", "assay_type": "cell-based", "experimental": "5-Lipoxygenase Assay Using Isolated Human Leukocytes (5LOA2)\nThe formation of 5-HETE in human leukocytes is considered a measure of 5-lipoxygenase activity. The protocol is described in the following.\nFresh heparinized or EDTA treated human blood is mixed with 6% dextran-3% dextrose in isotonic saline in the ratio 0.25 ml dextran solution per 1.0 ml blood. After mixing the blood is allowed to sit at room temperature for about 90 minutes while the RBC's settle. During this period, the plasma is removed with a plastic pipette to nalgens tubes.\nThe plasma is centrifuged at 800 rpm ([…]) on the Beckman Td-b refrigerated centrifuge to remove the platelets (which remain in the supernatant). The pellet, consisting of leukocytes and erythrocytes, is treated with 10 ml 0.87% ammonium chloride at room temperature for four minutes, lysing the red cells. At the end of four minutes the cells are diluted with a 2×volume of phosphate buffered saline, pH 7.4, and centrifuged for ten minutes. The cells are washed three times with the phosphate buffered saline. Any of the pelleted cell matter which is not easily resuspended is discarded during the washings --the material contains platelets (12-lipoxygenase activity).\nAfter washing, the cells are resuspended in phosphate buffered saline containing 1.0 mM calcium and 0.5 mM magnesium. After counting the cells are diluted to 1.5-2.0×10^7 leukocytes per milliliter.\nTo each polypropylene reaction tube is added 0.48 ml leukocytes in Ca-Mg phosphate buffered saline, pH 7.4; 1-5 μl test compound dissolved in DMSO and buffer; or DMSO for control tubes.\nThe tubes preincubate at 37° C. for five minutes. […]\nA portion of the ethanol solution is injected into the HPLC system for 5-HETE quantitation.\nThe HPLC system consists of Hewlett-Packard 1040A UV spectrophotometry system with an HP85 computer. […] Peaks are measured with a Hewlett Packard 3360A integrator. […] The flow is monitored at 235 nm for 5-HETE quatitation. […]"}
{"smiles": "O=C(Nc1ccc(CCc2ccc(Cl)c(Cl)c2)cc1)c1ccccc1O", "note": "[Example 42]", "values": [{"measurement": "% Inhibition (5LOA2)", "setting": "5LOA2, 2.00 E -5 M", "result": 30.9, "unit": "%"}, {"measurement": "% Inhibition (5LOA2)", "setting": "5LOA2, 5.00 E -6 M", "result": 21.1, "unit": "%"}]}
